Measurements from ChEMBL document CHEMBL5154649, “Design, synthesis, and characterization of novel aminoalcohol quinolines with strong in vitro antimalarial activity” (Eur J Med Chem, 2022).

Tests used:
[1] = Selectivity index, ratio of IC50 for cytotoxicity against human HepG2 cells to IC50 for antiplasmodial activity against CQ-susceptible Plasmodium falciparum 3D7 by SYBR Green 1 dye based fluorescence assay; format: toxicity, cell-based; details: HepG2 cells versus CQ-susceptible Plasmodium falciparum 3D7, read-out: Ratio IC50
Plasmodium falciparum [2] = assay: Selectivity index, ratio of IC50 for antiplasmodial activity against CQ-susceptible Plasmodium falciparum 3D7 to IC50 for antiplasmodial activity against CQ-resistant Plasmodium falciparum W2 by SYBR Green 1 dye based fluorescence assay; format: functional
Plasmodium falciparum [3] = assay: Antiplasmodial activity against CQ-resistant Plasmodium falciparum W2 assessed as inhibition of parasite growth measured after 48 hrs by SYBR Green 1 dye based fluorescence assay; format: functional, organism-based; details: W2, 48 h
[4] = Cytotoxicity against human HepG2 cells assessed as reduction in cell viability incubated for 72 hrs by MTT assay; format: toxicity, cell-based
Plasmodium falciparum [5] = assay: Antiplasmodial activity against CQ-susceptible Plasmodium falciparum 3D7 assessed as inhibition of parasite growth measured after 48 hrs by SYBR Green 1 dye based fluorescence assay; format: functional, organism-based; details: 3D7, 48 h
[6] = Selectivity index, ratio of IC50 for cytotoxicity against human HFF cells to IC50 for antiplasmodial activity against CQ-susceptible Plasmodium falciparum 3D7 by SYBR Green 1 dye based fluorescence assay; format: toxicity, cell-based; details: HFF cells versus CQ-susceptible Plasmodium falciparum 3D7, read-out: Ratio IC50
[7] = Cytotoxicity against human HFF cells assessed as reduction in cell viability incubated for 72 hrs by MTT assay; format: toxicity, cell-based
[8] = Selectivity index, ratio of IC50 for cytotoxicity against human THP-1 cells to IC50 for antiplasmodial activity against CQ-susceptible Plasmodium falciparum 3D7 by SYBR Green 1 dye based fluorescence assay; format: toxicity, cell-based; details: THP-1 cells versus CQ-susceptible Plasmodium falciparum 3D7, read-out: Ratio IC50
[9] = Cytotoxicity against Chinese hamster CHO cells assessed as reduction in cell viability incubated for 24 hrs by MTT assay; format: toxicity, cell-based, Cricetulus griseus
[10] = Cytotoxicity against human THP-1 cells assessed as reduction in cell viability incubated for 72 hrs by MTT assay; format: toxicity, cell-based
[11] = Selectivity index, ratio of IC50 for cytotoxicity against chinese hamster CHO cells to IC50 for antiplasmodial activity against CQ-susceptible Plasmodium falciparum 3D7 by SYBR Green 1 dye based fluorescence assay; format: toxicity, cell-based; details: CHO cells versus CQ-susceptible Plasmodium falciparum 3D7, read-out: Ratio IC50
Plasmodium falciparum [12] = assay: Antiplasmodial activity CQ-resistant Plasmodium falciparum W2 infected in human erythrocytes assessed as inhibition of parasite growth measured after 72 hrs by HRP2-ELISA; format: functional, organism-based; details: W2, Erythrocyte
[13] = Genotoxicity in CHO-K1 cells at 0.001 to 1 mM incubated for 3 hrs in presence of S9 mix by in vitro micronucleus test; format: toxicity, cell-based, Cricetulus griseus; details: chinese hamster, cho-k1, 3 h, 1000 µM, dose 0.001-1 mM
[14] = Selectivity index, ratio of IC50 for cytotoxicity against chinese hamster CHO cells to IC50 for antiplasmodial activity against Plasmodium falciparum 3D7 infected in human erythrocytes by HRP2-ELISA; format: toxicity, cell-based; details: read-out: Ratio IC50
[15] = Drug metabolism in rat liver microsomes assessed as oxidative metabolite formation measured after 5 mins by LC-MS analysis; format: ADME, Microsome
[16] = Drug metabolism in mouse liver microsomes assessed as (S)-2-(((S)-2-(2,8-Bis(trifluoromethyl)quinolin-4-yl)-2-hydroxyethyl)amino)-3-phenylpropan-1-ol metabolite formation measured after 5 mins by LC-MS analysis; format: ADME, Microsome
[17] = Metabolic stability in rat liver microsomes assessed as intrinsic clearance at 0.5 uM incubated for 30 mins by LC-MS/MS analysis; format: ADME, Microsome; details: read-out: CLH
[18] = Drug metabolism in human liver microsomes assessed as oxidative metabolite formation measured after 5 mins by LC-MS analysis; format: ADME, Microsome
[19] = Metabolic stability in mouse liver microsomes assessed as intrinsic clearance at 0.5 uM incubated for 30 mins by LC-MS/MS analysis; format: ADME, Microsome; details: read-out: CLH
Cytochrome P450 3A4 [20] = target: T1, Cytochrome P450 3A4 (Homo sapiens, UniProt P08684); assay: Inhibition of CYP3A4 in human liver microsomes assessed as reduction in 6-beta-hydroxy-testosterone formation using testosterone as substrate preincubated for 20 mins in presence of NADPH followed by incubation with substrate for 10 mins by LC-MS/MS analysis; format: ADME, Microsome
Plasmodium falciparum [21] = assay: Selectivity index, ratio of IC50 for antiplasmodial activity against CQ-susceptible Plasmodium falciparum 3D7 to IC50 for antiplasmodial activity CQ-resistant Plasmodium falciparum W2 by HRP2-ELISA; format: functional
Plasmodium falciparum [22] = assay: Antiplasmodial activity against CQ-susceptible Plasmodium falciparum 3D7 infected in human erythrocytes assessed as inhibition of parasite growth measured after 72 hrs by HRP2-ELISA; format: functional, organism-based; details: 3D7, Erythrocyte
[23] = Apparent permeability across apical to basolateral side in human Caco-2/TC7 cells at 20 uM incubated for 2 hrs by LC-MS/MS analysis; format: ADME, cell-based, Caco2/TC7
[24] = Selectivity index, ratio of IC50 for cytotoxicity against human THP-1 cells to IC50 for antiplasmodial activity against Plasmodium falciparum 3D7 infected in human erythrocytes by HRP2-ELISA; format: toxicity, cell-based; details: read-out: Ratio IC50
[25] = Drug metabolism in mouse liver microsomes assessed as (1S)-2-amino-1-[2,8-bis(trifluoromethyl)quinolin-4-yl]ethan-1-ol metabolite formation measured after 5 mins by LC-MS analysis; format: ADME, Microsome
[26] = Apparent permeability across apical to basolateral side in human Caco-2/TC7 cells assessed as drug recovery at 20 uM incubated for 2 hrs by LC-MS/MS analysis; format: ADME, cell-based, Caco2/TC7; details: read-out: Drug recovery
[27] = target: Voltage-gated inwardly rectifying potassium channel KCNH2 (Homo sapiens, UniProt Q12809); assay: Inhibition of hERG channel expressed in CHO cells at holding potential of -80 mV by whole cell patch clamp method; format: toxicity, cell-based
Cytochrome P450 3A4 [28] = target: T1, Cytochrome P450 3A4; assay: Inhibition of CYP3A4 in human liver microsomes assessed as reduction in 6-beta-hydroxy-testosterone formation using testosterone as substrate preincubated for 20 mins in absence of NADPH followed by incubation with substrate for 10 mins by LC-MS/MS analysis; format: ADME, Microsome
[29] = Metabolic stability in human liver microsomes assessed as intrinsic clearance at 0.5 uM incubated for 30 mins by LC-MS/MS analysis; format: ADME, Microsome; details: read-out: CLH
[30] = Genotoxicity in CHO-K1 cells at 0.001 to 1 mM incubated for 24 hrs without metabolic activation by in vitro micronucleus test; format: toxicity, cell-based, Cricetulus griseus; details: chinese hamster, cho-k1, 24 h, 1000 µM, dose 0.001-1 mM
Cytochrome P450 3A4 [31] = target: T1, Cytochrome P450 3A4; assay: Inhibition of CYP3A4 in human liver microsomes assessed as reduction in 1'-hydroxy midazolam formation using midazolam as substrate preincubated for 20 mins in presence of NADPH followed by incubation with substrate for 10 mins by LC-MS/MS analysis; format: ADME, Microsome
Cytochrome P450 3A4 [32] = target: T1, Cytochrome P450 3A4; assay: Inhibition of CYP3A4 in human liver microsomes assessed as reduction in 1'-hydroxy midazolam formation using midazolam as substrate preincubated for 20 mins in absence of NADPH followed by incubation with substrate for 10 mins by LC-MS/MS analysis; format: ADME, Microsome
[33] = Selectivity index, ratio of IC50 for human HFF cells to IC50 for antiplasmodial activity against Plasmodium falciparum 3D7 infected in human erythrocytes by HRP2-ELISA; format: toxicity, cell-based; details: read-out: Ratio IC50
[34] = Selectivity index, ratio of IC50 for cytotoxicity against human HepG2 cells to IC50 for antiplasmodial activity against Plasmodium falciparum 3D7 infected in human erythrocytes by HRP2-ELISA; format: toxicity, cell-based; details: read-out: Ratio IC50

T1 sequence (P08684 whole entry): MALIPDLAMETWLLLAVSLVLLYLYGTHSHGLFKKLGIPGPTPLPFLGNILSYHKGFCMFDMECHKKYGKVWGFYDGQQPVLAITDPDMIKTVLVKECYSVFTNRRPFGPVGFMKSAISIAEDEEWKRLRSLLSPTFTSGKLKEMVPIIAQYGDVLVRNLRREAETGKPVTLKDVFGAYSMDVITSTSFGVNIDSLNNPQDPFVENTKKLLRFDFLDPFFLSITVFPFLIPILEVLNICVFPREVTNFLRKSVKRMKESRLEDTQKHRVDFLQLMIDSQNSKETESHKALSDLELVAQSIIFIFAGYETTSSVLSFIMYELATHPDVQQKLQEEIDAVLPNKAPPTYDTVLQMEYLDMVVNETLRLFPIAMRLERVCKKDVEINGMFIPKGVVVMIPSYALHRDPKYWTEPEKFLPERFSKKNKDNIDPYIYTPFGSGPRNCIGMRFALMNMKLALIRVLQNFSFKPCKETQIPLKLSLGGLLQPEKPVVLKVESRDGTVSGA
Sequence of Voltage-gated inwardly rectifying potassium channel KCNH2 (Q12809 whole entry): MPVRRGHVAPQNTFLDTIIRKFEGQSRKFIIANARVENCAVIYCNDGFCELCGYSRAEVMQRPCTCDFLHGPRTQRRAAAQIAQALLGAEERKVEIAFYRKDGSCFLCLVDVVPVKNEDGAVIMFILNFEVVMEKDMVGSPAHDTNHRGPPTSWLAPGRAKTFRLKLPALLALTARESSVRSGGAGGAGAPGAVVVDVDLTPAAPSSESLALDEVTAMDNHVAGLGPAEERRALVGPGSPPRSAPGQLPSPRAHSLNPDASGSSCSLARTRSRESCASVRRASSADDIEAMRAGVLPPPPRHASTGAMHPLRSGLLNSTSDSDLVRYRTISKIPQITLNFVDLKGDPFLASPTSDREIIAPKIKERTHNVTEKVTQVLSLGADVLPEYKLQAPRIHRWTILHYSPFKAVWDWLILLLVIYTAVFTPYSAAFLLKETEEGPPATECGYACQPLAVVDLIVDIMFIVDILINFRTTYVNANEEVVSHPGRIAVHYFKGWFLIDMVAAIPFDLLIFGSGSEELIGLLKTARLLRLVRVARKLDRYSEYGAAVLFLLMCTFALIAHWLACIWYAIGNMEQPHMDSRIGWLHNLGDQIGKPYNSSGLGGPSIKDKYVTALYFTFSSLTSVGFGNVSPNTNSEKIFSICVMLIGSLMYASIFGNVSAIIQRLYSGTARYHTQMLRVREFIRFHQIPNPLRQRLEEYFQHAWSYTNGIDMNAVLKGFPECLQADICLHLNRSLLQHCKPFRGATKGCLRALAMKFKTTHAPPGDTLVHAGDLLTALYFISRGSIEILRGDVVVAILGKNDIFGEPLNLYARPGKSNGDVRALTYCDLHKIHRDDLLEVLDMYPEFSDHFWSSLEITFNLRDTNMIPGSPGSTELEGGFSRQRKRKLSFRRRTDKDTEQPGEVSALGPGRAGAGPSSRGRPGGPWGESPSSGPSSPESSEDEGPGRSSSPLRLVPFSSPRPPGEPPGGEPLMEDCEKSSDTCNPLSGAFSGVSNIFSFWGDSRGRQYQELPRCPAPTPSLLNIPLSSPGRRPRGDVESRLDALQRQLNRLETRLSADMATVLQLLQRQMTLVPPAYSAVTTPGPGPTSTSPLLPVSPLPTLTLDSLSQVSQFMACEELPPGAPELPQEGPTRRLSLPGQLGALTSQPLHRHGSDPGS

O[C@@H](CNCCN1CCN(C(c2ccccc2)c2ccccc2)CC1)c1cc(C(F)(F)F)nc2c(C(F)(F)F)cccc12
selectivity ratio [1]: 73
Ratio IC50 (Plasmodium falciparum [2]): 0.6
IC50 (Plasmodium falciparum [3]): 0.0765 µM
IC50 at 72 h [4]: 3.3 µM
IC50 (Plasmodium falciparum [5]): 0.0451 µM
selectivity ratio [6]: 308
IC50 at 72 h [7]: 13.9 µM
selectivity ratio [8]: 168
IC50 at 24 h [9]: 10.2 µM
IC50 at 72 h [10]: 7.6 µM
selectivity ratio [11]: 226

COC[C@H](Cc1ccccc1)NC[C@@H](O)c1cc(C(F)(F)F)nc2c(C(F)(F)F)cccc12
IC50 (Plasmodium falciparum [12]): 0.011 µM
Ratio IC50 (Plasmodium falciparum [2]): 1.1
Activity [13]: Non-Toxic
selectivity ratio [14]: 3170
Drug metabolism [15]: Metabolite_Detected
Drug metabolism [16]: Metabolite_Detected
IC50 (Plasmodium falciparum [3]): 0.0132 µM
microsomal CLint at 0.5 µM [17]: > 1000 µL/min/mg
Drug metabolism [18]: Metabolite_Detected
microsomal CLint at 0.5 µM [19]: > 1000 µL/min/mg
IC50 (Cytochrome P450 3A4 [20]): 2.3 µM
Ratio IC50 (Plasmodium falciparum [21]): 1.35
IC50 at 72 h [4]: 11.6 µM
IC50 (Plasmodium falciparum [22]): 0.0149 µM
Papp A→B at 2 h, 20 µM [23]: 61 nm/s
selectivity ratio [24]: 1090
Drug metabolism [25]: Metabolite_Detected
recovery at 2 h, 20 µM [26]: 81%
IC50 [27]: 17.3 µM
IC50 (Plasmodium falciparum [5]): 0.0151 µM
IC50 (Cytochrome P450 3A4 [28]): 2.9 µM
microsomal CLint at 0.5 µM [29]: > 1000 µL/min/mg
IC50 at 72 h [7]: 44.2 µM
Activity [30]: Non-Toxic
IC50 (Cytochrome P450 3A4 [31]): 5.9 µM
IC50 at 24 h [9]: 47.3 µM
IC50 (Cytochrome P450 3A4 [32]): 2.8 µM
selectivity ratio [33]: 2970
IC50 at 72 h [10]: 16.2 µM
selectivity ratio [34]: 778
